These results are taken from publication PMC5775428, “Towards an experimental classification system for membrane active peptides” (Scientific Reports, 2018).

Experiment [1] relates to Pseudomonas syringae pv. tabaci. The following applies: Pseudomonas syringae pv. tabaci. On the procedure:
(§1) Antimicrobial activity was tested against three categories of human and plant pathogenic microorganisms: Gram-positive (Bacillus subtilis, Bacillus cereus, Staphylococcus aureus), Gram-negative (Escherichia coli, Pseudomonas aeruginosa, Erwinia carotovora, Pseudomonas syringae pv. tabaci, Xanthomonas campestris pv. citri) and yeasts (Candida albicans, Cryptococcus neoformans), as previously reported. […] The full list of peptide MICs was published in an accompanying paper, and is available in the current publication as supplementary dataset (Supplementary dataset 01).
(§2) The determination of the minimum inhibitory concentration (MIC) of peptides was performed as described in “Encrypted Antimicrobial Peptides from Plant Proteins”[7]. Briefly, MICs were determined following protocols M7-A10 and M27-A3 from Clinical & Laboratory Standards Institute (CLSI) for bacteria and yeasts, respectively. Different concentrations of IAPs (0.5 to 256 μM) were tested against several microorganisms in a final volume of 100 µL. Three biological repetitions, with 2 technical replicates each, were performed for each test, on polystyrene flat-bottom 96 wells microplates. The minimum inhibitory concentration (MIC) was defined as the concentration at which no cells were detected when visualized by optical microscopy. Please refer to the literature[7] for further details of the microbiological assays.

A further experiment deals with Staphylococcus aureus. The following applies: Staphylococcus aureus; for Minimum inhibitory concentration, Average: average of triplicates. The protocol:
as §1, §2

For the next experiment, the system named is Escherichia coli. As to conditions: Escherichia coli; for Minimum inhibitory concentration, Average: average of triplicates. The protocol: as §1, §2
The subject of the next experiment is Bacillus cereus. As to conditions: Bacillus cereus. The protocol: as §1, §2
The test system of the next experiment is Xanthomonas campestris. The protocol: as §1, §2
A further experiment deals with Candida albicans. The following applies: Candida albicans; for Minimum inhibitory concentration, Average: average of triplicates. The protocol: as §1, §2
In a further experiment the test system is Bacillus subtilis. The following applies: Bacillus subtilis. On the procedure: as §1, §2
The next experiment concerns Erwinia carotovora. As to conditions: Erwinia carotovora. On the procedure:
as §1, §2

The subject of the next experiment is Pseudomonas aeruginosa. As to conditions: Pseudomonas aeruginosa; for Minimum inhibitory concentration, Average: average of triplicates. On the procedure:
as §1, §2

The next experiment relates to Cryptococcus neoformans. As to conditions: Cryptococcus neoformans. The protocol: as §1, §2
[2] abbreviates: CLSI M27-A3, 0.5 to 256 μM tested, triplicate 1, also published in ref 7.

Where two headings read alike, the source gives them in different places.

GSLHGFMYKYLKNMVLNLF [Tc06]: the Minimum inhibitory concentration in [1] (CLSI M7-A10, triplicate 1) was 16 µM; in [1] (triplicate 2), 16 µM; in [1] (triplicate 3), 16 µM; with Staphylococcus aureus (CLSI M7-A10, triplicate 1), 8 µM; in the experiment on Staphylococcus aureus (triplicate 2), 16 µM; with Staphylococcus aureus (triplicate 3) it was 16 µM. For the same sequence, the Minimum inhibitory concentration with Escherichia coli (CLSI M7-A10, triplicate 1) is 32 µM; in the experiment with Escherichia coli (triplicate 2), 32 µM; in the experiment with Escherichia coli (triplicate 3), 32 µM; with Bacillus cereus (CLSI M7-A10, triplicate 1), 64 µM; in the experiment with Bacillus cereus (triplicate 2) it was 64 µM; in the experiment on Bacillus cereus (triplicate 3) it was 64 µM. Moreover, the Minimum inhibitory concentration came out at 64 µM with Xanthomonas campestris (CLSI M7-A10, triplicate 1); 64 µM in the experiment on Xanthomonas campestris (triplicate 2); 64 µM in the experiment with Xanthomonas campestris (triplicate 3); 4 µM with Candida albicans (setting [2]); 4 µM in the experiment with Candida albicans (triplicate 2); 4 µM in the experiment with Candida albicans (triplicate 3). Besides, the Minimum inhibitory concentration in the experiment on Bacillus subtilis (CLSI M7-A10, triplicate 1) is 16 µM; in the experiment on Bacillus subtilis (triplicate 2), 16 µM; with Bacillus subtilis (triplicate 3) it was 16 µM; with Erwinia carotovora (CLSI M7-A10, triplicate 1) it was 128 µM; in the experiment with Erwinia carotovora (triplicate 2) it was 128 µM; with Erwinia carotovora (triplicate 3), 128 µM. The Minimum inhibitory concentration in the experiment on Pseudomonas aeruginosa (CLSI M7-A10, triplicate 1) stood at 16 µM; in the experiment on Pseudomonas aeruginosa (triplicate 2) it was 32 µM; in the experiment with Pseudomonas aeruginosa (triplicate 3), 32 µM; in the experiment with Cryptococcus neoformans (CLSI M27-A3, triplicate 1), 8 µM; with Cryptococcus neoformans (triplicate 2), 8 µM; in the experiment with Cryptococcus neoformans (triplicate 3) it was 16 µM. For the same sequence, the “Minimum inhibitory concentration, Average” value in experiment [1] (average of triplicates) came to 16.0 µM; in the experiment on Staphylococcus aureus, 13.3 µM; in the experiment on Escherichia coli, 32.0 µM; in the experiment with Bacillus cereus (average of triplicates), 64.0 µM; in the experiment with Xanthomonas campestris (average of triplicates), 64.0 µM; with Candida albicans, 4.0 µM. In addition, the “Minimum inhibitory concentration, Average” value is 16.0 µM with Bacillus subtilis (average of triplicates), 128.0 µM in the experiment on Erwinia carotovora (average of triplicates), 26.7 µM in the experiment with Pseudomonas aeruginosa and 10.7 µM with Cryptococcus neoformans (average of triplicates).

Regarding “FLSLIPHAINAVSTLVHHF [PS-2, reference compound]”, the Minimum inhibitory concentration in the experiment on Staphylococcus aureus (CLSI M7-A10, triplicate 1) amounted to 8 µM; with Staphylococcus aureus (triplicate 2), 8 µM; with Staphylococcus aureus (triplicate 3) it was 8 µM; with Escherichia coli (CLSI M7-A10, triplicate 1), 8 µM; with Escherichia coli (triplicate 2) it was 8 µM; in the experiment with Escherichia coli (triplicate 3), 8 µM. Besides, the Minimum inhibitory concentration in the experiment with Candida albicans (setting [2]) was 32 µM; with Candida albicans (triplicate 2), 32 µM; with Candida albicans (triplicate 3), 32 µM; with Pseudomonas aeruginosa (CLSI M7-A10, triplicate 1), 512 µM; with Pseudomonas aeruginosa (triplicate 2), 512 µM; with Pseudomonas aeruginosa (triplicate 3), 512 µM. The “Minimum inhibitory concentration, Average” value was 8.0 µM in the experiment on Staphylococcus aureus, 8.0 µM in the experiment on Escherichia coli, 32.0 µM with Candida albicans and 512.0 µM in the experiment with Pseudomonas aeruginosa.

As for “GIGKFLHSAKKFGKAFVGEIMNS [Mag-2a, Magainin-2a, reference compound]”, the Minimum inhibitory concentration was found to be 512 µM in the experiment with Staphylococcus aureus (CLSI M7-A10, triplicate 1); 512 µM in the experiment on Staphylococcus aureus (triplicate 2); 512 µM in the experiment on Staphylococcus aureus (triplicate 3); 8 µM with Escherichia coli (CLSI M7-A10, triplicate 1); 8 µM with Escherichia coli (triplicate 2); 8 µM in the experiment with Escherichia coli (triplicate 3). Also, the Minimum inhibitory concentration in the experiment with Candida albicans (setting [2]) turned out to be 64 µM; in the experiment with Candida albicans (triplicate 2), 64 µM; in the experiment on Candida albicans (triplicate 3), 64 µM; with Pseudomonas aeruginosa (CLSI M7-A10, triplicate 1), 512 µM; with Pseudomonas aeruginosa (triplicate 2), 512 µM; in the experiment with Pseudomonas aeruginosa (triplicate 3), 512 µM. In addition, the “Minimum inhibitory concentration, Average” value in the experiment with Staphylococcus aureus was found to be 512.0 µM; with Escherichia coli, 8.0 µM; in the experiment on Candida albicans it was 64.0 µM; in the experiment with Pseudomonas aeruginosa it was 512.0 µM.

With “GLKDMIKNLAKEAAVKLAGAVINKFSPQPQ [Nat-1, Nattererin-1, reference compound]”, the Minimum inhibitory concentration in the experiment with Staphylococcus aureus (CLSI M7-A10, triplicate 1) stood at 16 µM; in the experiment on Staphylococcus aureus (triplicate 2), 32 µM; in the experiment on Staphylococcus aureus (triplicate 3), 32 µM; in the experiment with Escherichia coli (CLSI M7-A10, triplicate 1), 8 µM; in the experiment on Escherichia coli (triplicate 2), 8 µM; in the experiment on Escherichia coli (triplicate 3), 8 µM. In addition, the Minimum inhibitory concentration in the experiment with Candida albicans (setting [2]) turned out to be 16 µM; with Candida albicans (triplicate 2), 16 µM; with Candida albicans (triplicate 3) it was 16 µM; with Pseudomonas aeruginosa (CLSI M7-A10, triplicate 1), 32 µM; in the experiment with Pseudomonas aeruginosa (triplicate 2) it was 32 µM; with Pseudomonas aeruginosa (triplicate 3), 32 µM. Besides, the “Minimum inhibitory concentration, Average” value was found to be 26.7 µM in the experiment on Staphylococcus aureus, 8.0 µM in the experiment with Escherichia coli, 16.0 µM in the experiment with Candida albicans and 32.0 µM with Pseudomonas aeruginosa.

Consider “GIGDILKNLAKAAGKAALHAVGESL [HSP-4, Hylaseptin-4, reference compound]”, for which the Minimum inhibitory concentration in the experiment on Staphylococcus aureus (CLSI M7-A10, triplicate 1) was determined as 8 µM; in the experiment with Staphylococcus aureus (triplicate 2), 8 µM; in the experiment on Staphylococcus aureus (triplicate 3) it was 8 µM; with Escherichia coli (CLSI M7-A10, triplicate 1) it was 8 µM; with Escherichia coli (triplicate 2) it was 8 µM; in the experiment on Escherichia coli (triplicate 3), 8 µM. Further, the Minimum inhibitory concentration in the experiment with Candida albicans (setting [2]) worked out at 8 µM; with Candida albicans (triplicate 2), 8 µM; with Candida albicans (triplicate 3), 8 µM; with Pseudomonas aeruginosa (CLSI M7-A10, triplicate 1), 16 µM; in the experiment on Pseudomonas aeruginosa (triplicate 2) it was 16 µM; in the experiment with Pseudomonas aeruginosa (triplicate 3) it was 16 µM. Further, the “Minimum inhibitory concentration, Average” value turned out to be 8.0 µM in the experiment on Staphylococcus aureus, 8.0 µM in the experiment on Escherichia coli, 8.0 µM with Candida albicans and 16.0 µM with Pseudomonas aeruginosa.
